Measurements: patent publication US10774051B2, “6-membered heterocyclic derivatives and pharmaceutical composition comprising the same” (Shionogi & Co., Ltd., priority 2015, dated 2020)
Like-named read-outs stand apart in the source and are kept apart here.

Tests used:
human P2X7 receptor = human P2X7 receptor (Homo sapiens, UniProt Q99572, R270H/Y155H); assay: Evaluation of human P2X7 receptor inhibitory activity (Yo-Pro uptake, BzATP stimulation, FLIPR TETRA); type: cell-based
Procedure, shortened: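 Yo-Pro dye uptake triggered by BzATP was monitored by FLIPR in human P2X7-transfected 1321N1 cells (SNP variant) in HEPES-buffered HBSS, pH 7.4-7.5. Compound was dispensed 8 min post-stimulation, then signal read for 20 min; IC50 derived logistically from inhibition of the fluorescence range.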

[1] = system: partial sciatic nerve ligation model in rats; assay: Analgesic effect in a Seltzer model, evaluation (1): mechanical allodynia, von Frey filaments; type: in vivo; details: rat, read-out: analgesic effect, % reversal of mechanical allodynia
From the text: Preparation of Partial Sciatic Nerve Ligation Model in Rats
Rats are anaesthetized using isoflurane/O2 inhalation anaesthesia. After induction of anesthesia, the left thigh is shaved. An incision was made in the skin just below the hip bone. The muscle was bluntly dissected to expose the sciatic nerve. About one half (½) of the sciatic nerve thickness is tightly ligated with a nylon thread and the wound is closed. The right thigh was used as a sham-operated control. The right thigh underwent an identical procedure with the left hind limb, however, the sciatic nerve was not manipulated or ligated.
Two weeks after nerve ligation, the effect on mechanical allodynia was assessed using a series of von Frey filaments. For habituation, the rats were placed into a plastic cage on a wire mesh bottom. Von Frey filaments (0.4 to 26 g) were applied to the plantar surface of the rat hind paws from the wire mesh side, and the value of the filament pressure at which the paw was withdrawn was used as a pain threshold. The measurement of mechanical sensitivity of the right and left hind paws was performed to obtain predose mechanical sensitivity. The rats showing the threshold change from 0.6 to 2 g (in nerve ligated side) and 8 to 15 g (in sham operated side) were used in the experiments. On the day before the experiment, the rats were evaluated with a series of von Frey filaments to familiarize them with the test procedure. The adopted animal was administrated with the compounds of the present invention. The compounds of the present invention were homogenized with mortar and pestle and suspended or diluted in 0.5% Methyl Cellulose to prepare 0.03-100 mg/2 mL/kg suspension and orally administered to rat using a syringe attached with a sonde. Post-dose mechanical sensitivities of the right and left hind paws were measured at approximately 1 to 7 hours after drug administration. Percent reversal of mechanical allodynia for each rat was calculated using the following formula. The analgesic effects of the compounds were compared.

[2] = 1321N1 cells stably expressing human P2X7 receptor, BzATP stimulation, Yo-Pro uptake, read-out: IC50 (antagonistic activity for the human P2X7 receptor)
[3] = 3 hours after oral administration of 3 mg/kg
[4] = 5 hours after oral administration of 3 mg/kg
[5] = antagonistic activity for the human P2X7 receptor, read-out: IC50

Structure (SMILES) | IC50 (human P2X7 receptor; [2]) | IC50 (human P2X7 receptor; [5]) | other results
COc1cn(Cc2ccc(F)c(Cl)c2)c(Nc2cc3sc(C)nc3cc2C)nc1=O [Compound I-0005] | 5 nM |  | inhibition in vivo at 3 mg/kg [1, 3]: 45%
COc1cn(Cc2ccc(F)c(Cl)c2)c(Nc2cc(C)c(Cl)cc2C)nc1=O [Compound I-0006] | 6 nM |  | inhibition in vivo at 3 mg/kg [1, 3]: 49%
COc1ccc(C)c(Nc2nc(=O)c(OC)cn2Cc2ccc(F)c(Cl)c2)c1 [Compound I-0354] | 3 nM |  | inhibition in vivo at 3 mg/kg [1, 3]: 51%
COc1cn(Cc2ccc(F)c(Cl)c2)c(Nc2ccc(OC(F)F)cc2C)nc1=O [Compound I-0365] | 18 nM |  | inhibition in vivo at 3 mg/kg [1, 4]: 55%
COc1cc(C)c(Nc2nc(=O)c(OC)cn2Cc2cc(F)cc(F)c2)cc1C [Compound I-0372] | 5 nM |  | inhibition in vivo at 3 mg/kg [1, 3]: 64%
CCOc1ccc(Nc2nc(=O)c(OC)cn2Cc2cc(F)c(F)c(F)c2)c(C)c1 [Compound I-0702] | 11 nM |  | inhibition in vivo at 3 mg/kg [1, 4]: 58%
COc1cn(Cc2cc(F)c(F)c(F)c2)c(Nc2ccc(OC(F)F)cc2C)nc1=O [Compound I-0707] | 14 nM |  | inhibition in vivo at 3 mg/kg ([1]; 7 hours after oral administration of 3 mg/kg): 53%
COc1ccc(Nc2nc(=O)c(F)cn2Cc2cc(F)cc(F)c2)c(C)c1 [Compound I-0842] | 5 nM |  | inhibition in vivo at 3 mg/kg [1, 4]: 69%
COc1cn(Cc2cc(F)c(F)c(F)c2)c(Nc2cc3c(cc2C)COC3)nc1=O [Compound I-0910] | 14 nM |  | inhibition in vivo at 3 mg/kg [1, 4]: 45%
COc1ccc(Nc2nc(=O)c(F)cn2Cc2cc(F)c(F)c(F)c2)c(C)c1 [Compound I-1040] | 6 nM |  | inhibition in vivo at 3 mg/kg [1, 3]: 49%
Cc1cc2c(cc1Nc1nc(=O)c(F)cn1Cc1cc(F)c(F)c(F)c1)COC2 [Compound I-1041] | 9 nM |  | inhibition in vivo at 3 mg/kg [1, 4]: 48%
COc1cc(Nc2nc(=O)c(F)cn2Cc2cc(F)cc(F)c2)c(C)cc1F [Compound I-1050] | 10 nM |  | inhibition in vivo at 3 mg/kg [1, 4]: 46%
COc1ccc(C)c(Nc2nc(=O)c(F)cn2Cc2cc(F)c(F)c(F)c2)c1 [Compound I-1066] | 3 nM |  | inhibition in vivo at 3 mg/kg [1, 4]: 63%
O=C1CCCc2c(Nc3nc(=O)c(F)cn3Cc3cc(F)c(F)c(F)c3)cccc21 [Compound I-1108] | 4 nM |  | inhibition in vivo at 3 mg/kg [1, 4]: 42%
Cc1cc(Nc2nc(=O)c(F)cn2Cc2cc(F)c(F)c(F)c2)c(C)nc1OC(F)F [Compound I-1232] | 6 nM |  | inhibition in vivo at 3 mg/kg [1, 4]: 55%
COc1cc(C)c(Nc2nc(=O)c(C)nn2Cc2cc(F)cc(F)c2)cc1OC [Compound I-1261] | 16 nM |  | inhibition in vivo at 3 mg/kg [1, 4]: 54%
Cc1nc2cc(C)c(Nc3nc(=O)c(C)nn3Cc3cc(F)c(F)c(F)c3)cc2s1 [Compound I-1267] | 10 nM |  | 
COc1ccc(Nc2nc(=O)cnn2Cc2ccc(Cl)c(F)c2)c(C)c1 [Compound I-1268] |  | 10 to 100 nM | 
COc1ccc(Nc2nc(=O)cnn2Cc2cc(F)cc(Cl)c2)c(C)c1 [Compound I-1269] |  | 10 to 100 nM | 
COc1ccc(Nc2nc(=O)cnn2Cc2ccc(F)c(Cl)c2)c(C)c1 [Compound I-1270] |  | < 10 nM | 
COc1ccc(Nc2nc(=O)cnn2Cc2cc(F)cc(F)c2)c(C)c1 [Compound I-1271] |  | < 10 nM | 
COc1ccc(Nc2nc(=O)cnn2Cc2ccc(F)c(F)c2)c(C)c1 [Compound I-1272] |  | < 10 nM | 
COc1ccc(Nc2nc(=O)cnn2Cc2ccc(F)cc2)c(C)c1 [Compound I-1273] |  | < 10 nM | 
COc1ccc(Nc2nc(=O)cnn2Cc2cccc(F)c2)c(C)c1 [Compound I-1274] |  | < 10 nM | 

Structure (SMILES) | IC50 (human P2X7 receptor; [2]) | IC50 (human P2X7 receptor; [5]) | other results
COc1ccc(Nc2nc(=O)cnn2Cc2ccccc2F)c(C)c1 [Compound I-1275] |  | 100 to 500 nM | 
COc1ccc(Nc2nc(=O)cnn2Cc2ccccc2)c(C)c1 [Compound I-1276] |  | 10 to 100 nM | 
COc1ccc(Nc2nc(=O)c(C)nn2Cc2cc(F)c(F)c(F)c2)c(C)c1 [Compound I-1277] |  | < 10 nM | 
COc1cc(C)c(Nc2nc(=O)cnn2Cc2cc(F)c(F)c(F)c2)cc1Cl [Compound I-1278] |  | < 10 nM | 
COc1cc(Nc2nc(=O)cnn2Cc2cc(F)c(F)c(F)c2)c(C)cc1Cl [Compound I-1279] |  | < 10 nM | 
Cc1cc2c(cc1Nc1nc(=O)cnn1Cc1cc(F)c(F)c(F)c1)COC2 [Compound I-1280] |  | < 10 nM | 
COc1cc(C)c(Nc2nc(=O)cnn2Cc2cc(F)c(F)c(F)c2)cc1OC [Compound I-1281] | 4 nM |  | inhibition in vivo at 3 mg/kg [1, 4]: 48%
COc1ccc(C)c(Nc2nc(=O)cnn2Cc2cc(F)c(F)c(F)c2)c1 [Compound I-1282] |  | < 10 nM | 
COc1ccc(Nc2nc(=O)cnn2Cc2cc(F)c(F)c(F)c2)c(C)c1 [Compound I-1283] |  | < 10 nM | 
Cc1nc2cc(C)c(Nc3nc(=O)cnn3Cc3cc(F)c(F)c(F)c3)cc2s1 [Compound I-1284] |  | < 10 nM | 
COc1cn(Cc2cc(F)c(F)c(F)c2)c(Nc2cc3sc(C)nc3cc2C)nc1=NC#N [Compound I-1285] | 27 nM |  | 
Cc1nc2cc(C)c(Nc3nc(=NC#N)c(F)cn3Cc3cc(F)c(F)c(F)c3)cc2s1 [Compound I-1286] |  | < 10 nM | 
COc1cc(C)c(Nc2nc(=NC#N)c(OC)cn2Cc2cc(F)c(F)c(F)c2)cc1OC [Compound I-1287] |  | 10 to 100 nM | 
COc1cc(C)c(Nc2nc(=NC#N)c(F)cn2Cc2cc(F)c(F)c(F)c2)cc1OC [Compound I-1288] |  | 10 to 100 nM | 
CN=c1nc(Nc2cc(C)ccc2C)n(Cc2cc(F)c(F)c(F)c2)cc1F [Compound I-1289] |  | 100 to 500 nM | 
Cc1ccc(C)c(Nc2nc(=NO)c(F)cn2Cc2cc(F)c(F)c(F)c2)c1 [Compound I-1290] | 21 nM |  | 
CON=c1nc(Nc2cc3sc(C)nc3cc2C)n(Cc2cc(F)c(F)c(F)c2)cc1F [Compound I-1291] |  | 100 to 500 nM | 
CON=c1nc(Nc2cc(C)ccc2C)n(Cc2cc(F)c(F)c(F)c2)cc1F [Compound I-1292] |  | 100 to 500 nM | 
Cc1ccc(C)c(Nc2nc(=NC#N)c(F)cn2Cc2cc(F)c(F)c(F)c2)c1 [Compound I-1293] |  | < 10 nM | 
Cc1ccc(C)c(Nc2nc(=N)c(F)cn2Cc2cc(F)c(F)c(F)c2)c1 [Compound I-1294] |  | 10 to 100 nM | 
Cc1ccc(F)cc1Nc1nc(=O)c(F)cn1Cc1cc(F)c(F)c(F)c1 [Compound I-1295] | 13 nM |  | inhibition in vivo at 3 mg/kg [1, 3]: 51%
COc1ccc(F)c(Nc2nc(=O)c(F)cn2Cc2cc(F)c(F)c(F)c2)c1 [Compound I-1296] | 11 nM |  | inhibition in vivo at 3 mg/kg [1, 3]: 59%
COc1ccc(Nc2nc(=O)c(F)cn2Cc2cc(F)cc(F)c2)c(C)c1F [Compound I-1297] | 16 nM |  | inhibition in vivo at 3 mg/kg [1, 4]: 49%
